Experiments:
KRAS G12C = KRAS G12C (Homo sapiens, UniProt P01116, G12C); test: GDP-GTP exchange assay (fluorescence based guanine nucleotide exchange, bodipy-GDP for GppNHp, SOS1); type: biochemical; conditions: bodipy-loaded KRAS G12C, 2 hours pre-incubation with inhibitor, read-out: G12C_exchange (KRAS_G12C exchange assay IC50)
Description: The inhibitor potency of the exemplified compounds was determined in a fluorescence based guanine nucleotide exchange assay, which measures the exchange of bodipy-GDP (fluorescently labeled GDP) for GppNHp (Non-hydrolyzable GTP analog) to generate the active state of KRAS in the presence of SOS1 (guanine nucleotide exchange factor). Inhibitors were serially diluted in DMSO and a volume of 0.1 μL was transferred to the wells of a black low volume 384-well plate. 5 μL/well volume of bodipy-loaded KRAS G12C diluted to 5 nM in assay buffer (25 mM Hepes pH 7.5, 50 mM NaCl, 10 mM MgCl2 and 0.01% Brij-35) was added to the plate and pre-incubated with inhibitor for 2 hours at ambient temperature. Appropriate controls (enzyme with no inhibitor or with a G12C inhibitor (AMG-510)) were included on the plate. The exchange was initiated by the addition of a 5 μL/well volume containing 1 mM GppNHp and 300 nM SOS1 in assay buffer. The 10 μL/well reaction concentration of the bodipy-loaded KRAS G12C, GppNHp, and SOS1 were 5-25 nM, 500 uM, and 150 nM, respectively. The reaction plates were incubated at ambient temperature for 2 hours, a time estimated for complete GDP-GTP exchange in the absence of inhibitor. For the KRAS G12D and G12V mutants, similar guanine nucleotide exchange assays were used with 2.5 nM as final concentration for the bodipy loaded KRAS proteins and with 4 hours and 3 hours incubation after adding GppNHp-SOS1 mixture for G12D and G12V, respectively. A cyclic peptide described to selectively bind G12D mutant (Sakamoto et al., BBRC 484.3 (2017), 605-611) or internal compounds with confirmed binding were used as positive controls in the assay plates. Fluorescence intensities were measured on a PheraStar plate reader instrument (BMG Labtech) with excitation at 485 nm and emission at 520 nm.
Either GraphPad prism or XLfit was used to analyze the data. The IC50 values were derived by fitting the data to a four parameter logistic equation producing a sigmoidal dose-response curve with a variable Hill coefficient. Prism equation: Y=Bottom+(Top−Bottom)/(1+10^((Log IC50−X)*Hill slope)); XLfit equation: Y=(A+((B−A)/(1+((X/C)^D)))) where X is the logarithm of inhibitor concentration and Y is the response.

[1] = test system: MIA PaCa-2 (KRAS G12C) cells; test: Cellular pERK HTRF assay; type: cell-based; conditions: Homo sapiens; MIA PaCa-2 cells, 4 hours, phospho-ERK 1/2 HTRF; read-out: G12C_pERK (KRAS_G12C pERK assay IC50)
Description: MIA PaCa-2 (KRAS G12C; ATCC® CRL-1420), A427 (KRAS G12D; ATCC® HTB53), HPAF-II (KRAS G12D; ATCC® CRL-1997) and NCI-H838 (KRAS WT; ATCC® CRL-5844) cells are purchased from ATCC and maintained in RPMI 1640 media supplemented with 10% FBS (Gibco/Life Technologies). The cells are plated at 5000 cells per well (8 uL) into Greiner 384-well low volume, flat-bottom, tissue culture treated white plates and incubated overnight at 37° C. 5% CO2. The next morning, test compound stock solutions are diluted in media at 3× the final concentration, and 4 uL are added to the cells. The plate is mixed by gentle rotation for 30 seconds (250 rpm) at room temperature. The cells are incubated with the KRAS G12C and G12D compounds for 4 hours or 2 hours respectively at 37° C., 5% CO2.
4 uL of 4× lysis buffer with blocking reagent (1:25) (Cisbio) are added to each well and plates are rotated gently (300 rpm) for 30 minutes at room temperature. 4 uL per well of Cisbio anti Phospho-ERK 1/2 d2 is mixed with anti Phospho-ERK 1/2 Cryptate (1:1) are added to each well, mixed by rotation and incubated overnight in the dark at room temperature. Plates are read on the Pherastar plate reader at 665 nm and 620 nm wavelengths. IC50 determination is performed by fitting the curve of inhibitor percent inhibition versus the log of the inhibitor concentration using the GraphPad Prism 7 software.

Sequence of KRAS G12C (P01116 1-188 isoform P01116-2 G12C): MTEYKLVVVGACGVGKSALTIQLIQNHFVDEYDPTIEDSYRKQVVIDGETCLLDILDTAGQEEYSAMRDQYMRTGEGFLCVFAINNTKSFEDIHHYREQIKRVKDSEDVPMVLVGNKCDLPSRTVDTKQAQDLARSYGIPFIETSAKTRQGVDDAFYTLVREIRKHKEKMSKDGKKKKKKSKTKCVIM

| Compound | IC50 (KRAS G12C) | IC50 [1] |
| --- | --- | --- |
| C=CC(=O)N1CC(F)(Cn2c(=O)c(=O)n(-c3c(C)ccnc3C(C)C)c3nc(-c4c(C)ccc5cn[nH]c45)c(Cl)cc32)C1 [Example 28, 1-((1-acryloyl-3-fluoroazetidin-3-yl)methyl)-7-chloro-4-(2-isopropyl-4-methylpyridin-3-yl)-6-(6-methyl-1H-indazol-7-yl)-1,4-dihydropyrido[2,3-b]pyrazine-2,3-dione] | ≤ 0.1 µM | ≤ 0.1 µM |
| C=CC(=O)N1CC(Cn2c(=O)c(=O)n(-c3c(C(C)C)cccc3C(C)C)c3nc(-c4ccccc4F)c(Cl)cc32)(OC)C1 [Example 8, 1-((1-acryloyl-3-methoxy-azetidin-3-yl)methyl)-7-chloro-4-(2,6-diisopropylphenyl)-6-(2-fluorophenyl)-1,4-dihydropyrido[2,3-b]pyrazine-2,3-dione] | 0.1 to 1 µM | 0.1 to 1 µM |
| C=CC(=O)N1CC(F)(Cn2c(=O)c(=O)n(-c3c(C)ccnc3C(C)C)c3nc(-c4ccccc4Cl)c(Cl)cc32)C1 [Example 36, 1-((1-acryloyl-3-fluoroazetidin-3-yl)methyl)-7-chloro-6-(2-chlorophenyl)-4-(2-isopropyl-4-methylpyridin-3-yl)-1,4-dihydropyrido[2,3-b]pyrazine-2,3-dione] | ≤ 0.1 µM | ≤ 0.1 µM |
| C=CC(=O)N1CC(F)(Cn2c(=O)c(=O)n(-c3c(C)ccnc3C(C)C)c3nc(-c4cccc(Cl)c4Cl)c(Cl)cc32)C1 [Example 35, 1-((1-acryloyl-3-fluoroazetidin-3-yl)methyl)-7-chloro-6-(2,3-dichlorophenyl)-4-(2-isopropyl-4-methylpyridin-3-yl)-1,4-dihydropyrido[2,3-b]pyrazine-2,3-dione] | ≤ 0.1 µM | ≤ 0.1 µM |
| C=CC(=O)N1CC(F)(Cn2c(=O)c(=O)n(-c3c(C)ccnc3C(C)C)c3nc(-c4cccc(C)c4F)c(Cl)cc32)C1 [Example 34, 1-((1-acryloyl-3-fluoroazetidin-3-yl)methyl)-7-chloro-6-(2-fluoro-3-methylphenyl)-4-(2-isopropyl-4-methylpyridin-3-yl)-1,4-dihydropyrido[2,3-b]pyrazine-2,3-dione] | ≤ 0.1 µM | ≤ 0.1 µM |
| C=CC(=O)N1CC(F)(Cn2c(=O)c(=O)n(-c3c(C(C)C)cccc3C(C)C)c3nc(-c4c(N)cccc4F)c(Cl)cc32)C1 [Example 15, 1-((1-acryloyl-3-fluoroazetidin-3-yl)methyl)-6-(2-amino-6-fluorophenyl)-7-chloro-4-(2,6-diisopropylphenyl)-1,4-dihydropyrido[2,3-b]pyrazine-2,3-dione] | ≤ 0.1 µM | ≤ 0.1 µM |
| [2H]C([2H])(n1c(=O)c(=O)n(-c2c(C)ccnc2C(C)C)c2nc(-c3cccc(Cl)c3Cl)c(Cl)cc21)C1(F)CN(C(=O)C=C)C1 [Example 51, 1-((1-acryloyl-3-fluoroazetidin-3-yl)methyl-d2)-7-chloro-6-(2,3-dichlorophenyl)-4-(2-isopropyl-4-methylpyridin-3-yl)-1,4-dihydropyrido[2,3-b]pyrazine-2,3-dione] | ≤ 0.1 µM | ≤ 0.1 µM |
| C=CC(=O)N1CC(F)(Cn2c(=O)c(=O)n(-c3c(C)ccnc3C(C)C)c3nc(-c4c(O)ccc(F)c4F)c(Cl)cc32)C1 [Example 23, 1-((1-acryloyl-3-fluoroazetidin-3-yl)methyl)-7-chloro-6-(2,3-difluoro-6-hydroxyphenyl)-4-(2-isopropyl-4-methylpyridin-3-yl)-1,4-dihydropyrido[2,3-b]pyrazine-2,3-dione] | ≤ 0.1 µM | ≤ 0.1 µM |
| C=CC(=O)N1CC(F)(Cn2c(=O)c(=O)n(-c3c(C)ccnc3C(C)C)c3nc(-c4cccc5c(C)n[nH]c45)c(Cl)cc32)C1 [Example 27, 1-((1-acryloyl-3-fluoroazetidin-3-yl)methyl)-7-chloro-4-(2-isopropyl-4-methylpyridin-3-yl)-6-(3-methyl-1H-indazol-7-yl)-1,4-dihydropyrido[2,3-b]pyrazine-2,3-dione] | 0.1 to 1 µM | 0.1 to 1 µM |
| C=CC(=O)N1CC(O)(Cn2c(=O)c(=O)n(-c3c(C)ccnc3C(C)C)c3nc(-c4c(O)cccc4F)c(Cl)cc32)C1 [Example 42, 1-((1-acryloyl-3-hydroxyazetidin-3-yl)methyl)-7-chloro-6-(2-fluoro-6-hydroxyphenyl)-4-(2-isopropyl-4-methylpyridin-3-yl)-1,4-dihydropyrido[2,3-b]pyrazine-2,3-dione] | ≤ 0.1 µM | 0.1 to 1 µM |
| C=C(F)C(=O)N1CC(F)(Cn2c(=O)c(=O)n(-c3c(C(C)C)cccc3C(C)C)c3nc(-c4c(O)cccc4F)c(Cl)cc32)C1 [Example 13, 7-chloro-4-(2,6-diisopropylphenyl)-1-((3-fluoro-1-(2-fluoroacryloyl)azetidin-3-yl)methyl)-6-(2-fluoro-6-hydroxyphenyl)-1,4-dihydropyrido[2,3-b]pyrazine-2,3-dione] | ≤ 0.1 µM | ≤ 0.1 µM |
| C=CC(=O)N1CC(F)(Cn2c(=O)c(=O)n(-c3c(C)ccnc3C(C)C)c3nc(-c4c(N)cccc4F)c(Cl)cc32)C1 [Example 19, 1-((1-acryloyl-3-fluoroazetidin-3-yl)methyl)-6-(2-amino-6-fluorophenyl)-7-chloro-4-(2-isopropyl-4-methylpyridin-3-yl)-1,4-dihydropyrido[2,3-b]pyrazine-2,3-dione] | ≤ 0.1 µM | ≤ 0.1 µM |
| C=CC(=O)N1CC(F)(Cn2c(=O)c(=O)n(-c3c(C(C)C)cccc3C(C)C)c3nc(-c4c(O)cccc4F)c(Cl)cc32)C1 [Example 12, 1-((1-acryloyl-3-fluoroazetidin-3-yl)methyl)-7-chloro-4-(2,6-diisopropylphenyl)-6-(2-fluoro-6-hydroxyphenyl)-1,4-dihydropyrido[2,3-b]pyrazine-2,3-dione] | ≤ 0.1 µM | ≤ 0.1 µM |
| C=CC(=O)N1CC(O)(Cn2c(=O)c(=O)n(-c3c(C)ccnc3C(C)C)c3nc(-c4c(O)ccc(F)c4F)c(Cl)cc32)C1 [Example 45, 1-((1-acryloyl-3-hydroxyazetidin-3-yl)methyl)-7-chloro-6-(5,6-difluoro-2-hydroxyphenyl)-4-(2-isopropyl-4-methylpyridin-3-yl)-1,4-dihydropyrido[2,3-b]pyrazine-2,3-dione] | ≤ 0.1 µM | 1 to 5 µM |
| [2H]C([2H])(n1c(=O)c(=O)n(-c2c(C)ccnc2C(C)C)c2nc(-c3c(F)ccc(C)c3O)c(Cl)cc21)C1(F)CN(C(=O)C=C)C1 [Example 47, 1-((1-acryloyl-3-fluoroazetidin-3-yl)methyl-d2)-7-chloro-6-(6-fluoro-2-hydroxy-3-methylphenyl)-4-(2-isopropyl-4-methylpyridin-3-yl)-1,4-dihydropyrido[2,3-b]pyrazine-2,3-dione] | ≤ 0.1 µM | ≤ 0.1 µM |
| C=CC(=O)N1CC(Cn2c(=O)c(=O)n(-c3c(C)ccnc3C(C)C)c3nc(-c4c(N)cccc4F)c(Cl)cc32)(OC)C1 [Example 40, 1-((1-acryloyl-3-methoxyazetidin-3-yl)methyl)-6-(2-amino-6-fluorophenyl)-7-chloro-4-(2-isopropyl-4-methylpyridin-3-yl)-1,4-dihydropyrido[2,3-b]pyrazine-2,3-dione] | 0.1 to 1 µM | 0.1 to 1 µM |
| C=CC(=O)N1CC(F)(Cn2c(=O)c(=O)n(-c3c(C(C)C)cccc3C(C)C)c3nc(-c4ccccc4F)c(Cl)cc32)C1 [Example 10, 1-((1-acryloyl-3-fluoro-azetidin-3-yl)methyl)-7-chloro-4-(2,6-diisopropylphenyl)-6-(2-fluorophenyl)-1,4-dihydropyrido[2,3-b]pyrazine-2,3-dione] | ≤ 0.1 µM | 0.1 to 1 µM |
